In ChEMBL document CHEMBL4316600, “Electrostatic Complementarity as a Fast and Effective Tool to Optimize Binding and Selectivity of Protein-Ligand Complexes” (J Med Chem, 2019):

Target: Dual specificity mitogen-activated protein kinase kinase 1 (Homo sapiens, UniProt Q02750)
Assay: Inhibition of MEK1 (unknown origin)

Dual specificity mitogen-activated protein kinase kinase 1, sequence (Q02750 whole entry): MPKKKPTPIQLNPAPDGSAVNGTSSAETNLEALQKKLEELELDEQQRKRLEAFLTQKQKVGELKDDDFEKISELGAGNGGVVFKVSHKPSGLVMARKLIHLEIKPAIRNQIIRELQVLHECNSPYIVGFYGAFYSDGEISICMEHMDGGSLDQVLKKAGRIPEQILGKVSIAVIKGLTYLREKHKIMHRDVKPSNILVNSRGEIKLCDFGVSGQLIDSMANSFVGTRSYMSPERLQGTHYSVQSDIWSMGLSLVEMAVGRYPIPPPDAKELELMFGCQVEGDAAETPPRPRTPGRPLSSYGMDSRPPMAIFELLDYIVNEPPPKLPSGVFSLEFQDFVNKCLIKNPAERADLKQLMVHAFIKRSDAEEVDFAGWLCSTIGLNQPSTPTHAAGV

SMILES	IC50
O=C(NOCCCO)c1ccc(F)c(F)c1Nc1ccc(F)cc1F	120 nM
O=C(NOCCCO)c1ccc(F)c(F)c1Nc1ccc(Br)cc1F	7.7 nM
O=C(NOCCCO)c1ccc(F)c(F)c1Nc1ccc(Cl)cc1F	26 nM
O=C(NOCCCO)c1ccc(F)c(F)c1Nc1ccc(I)cc1F	2 nM
